Measurements reported in patent US20220289691A1, “5-AMINO-SUBSTITUTED PYRAZOLES AND TRIAZOLES AS PEST CONTROL AGENTS” (Bayer Aktiengesellschaft, priority 2019, published 2022).

Tests used:
Type in all cases: in vivo
[1] = test system: Boophilus microplus; assay: Boophilus microplus injection test; conditions: 20 μg/animal, injection into engorged adult female cattle ticks, after 7 days
Protocol: Boophilus microplus—Injection Test
(§1) Solvent: Dimethyl Sulfoxide
To produce a suitable active compound formulation, 10 mg of active compound are mixed with 0.5 ml of solvent and the concentrate is diluted to the desired concentration with solvent.
1 μl of the active compound solution is injected into the abdomen of 5 engorged adult female cattle ticks (Boophilus microplus). The animals are transferred into dishes and kept in a climate-controlled room.
Efficacy is assessed after 7 days by laying of fertile eggs. Eggs which are not visibly fertile are stored in a climate-controlled cabinet until the larvae hatch after about 42 days. An efficacy of 100% means that none of the ticks has laid any fertile eggs; 0% means that all the eggs are fertile.

[2] = test system: Phaedon cochleariae; assay: Phaedon cochleariae spray test; conditions: foliar, 168 h, Chinese cabbage leaf discs, after 7 days, read-out: efficacy (beetle larvae killed)
Protocol: Phaedon cochleariae—Spray Test Solvent: 78.0 parts by weight of acetone • • 1.5 parts by weight of dimethylformamide Emulsifier: alkylaryl polyglycol ether
(§2) To produce a suitable active compound formulation, 1 part by weight of active compound is dissolved using the stated parts by weight of solvent and made up with water containing an emulsifier concentration of 1000 ppm until the desired concentration is attained. To produce further test concentrations, the formulation is diluted with emulsifier-containing water.
Discs of Chinese cabbage leaves (Brassica pekinensis) are sprayed with an active compound formulation of the desired concentration and, after drying, populated with larvae of the mustard beetle (Phaedon cochleariae).
After 7 days, the efficacy in % is determined. 100% means that all the beetle larvae have been killed; 0% means that no beetle larvae have been killed.

[3] = test system: Musca domestica; assay: Musca domestica test; conditions: 100 ppm, adult houseflies, after 2 days
Protocol: as §1
To produce a suitable active compound formulation, 10 mg of active compound are mixed with 0.5 ml of dimethyl sulfoxide, and the concentrate is diluted with water to the desired concentration.
Vessels containing a sponge treated with sugar solution and the desired concentration of active compound formulation are populated with 10 adult houseflies (Musca domestica).
After 2 days, the kill in % is determined. 100% means that all of the flies have been killed; 0% means that none of the flies have been killed.

[4] = test system: Ctenocephalides felis; assay: Ctenocephalides felis oral test; conditions: 48 h, 100 ppm in citrated cattle blood, adult cat fleas, after 2 days, read-out: efficacy (kill)
Protocol: Ctenocephalides felis—Oral Test
as §1
To produce a suitable active compound formulation, 10 mg of active compound are mixed with 0.5 ml of dimethyl sulfoxide. Dilution with citrated cattle blood gives the desired concentration.
About 20 unfed adult cat fleas (Ctenocephalides felis) are placed into a chamber which is closed at the top and bottom with gauze. A metal cylinder whose bottom end is closed with parafilm is placed onto the chamber. The cylinder contains the blood/active compound formulation, which can be imbibed by the fleas through the parafilm membrane.
After 2 days, the kill in % is determined. 100% means that all of the fleas have been killed; 0% means that none of the fleas have been killed.

[5] = test system: Spodoptera frugiperda; assay: Spodoptera frugiperda spray test; conditions: foliar, 168 h, maize leaf discs, after 7 days, read-out: efficacy (caterpillars killed)
Procedure, shortened: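 Compound was dissolved in acetone/dimethylformamide and diluted with water containing 1000 ppm alkylaryl polyglycol ether emulsifier to test concentrations. Maize leaf discs were sprayed, dried and infested with fall armyworm caterpillars. Efficacy (% caterpillars killed) was scored after 7 days.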

[6] = test system: Tetranychus urticae; assay: Tetranychus urticae spray test, OP-resistant; conditions: 100 g/ha
Protocol: Tetranychus urticae—Spray Test, OP-Resistant Solvent: 78.0 parts by weight of acetone • • 1.5 parts by weight of dimethylformamide Emulsifier: alkylaryl polyglycol ether
as §2
Discs of bean leaves (Phaseolus vulgaris) infested with all stages of the greenhouse red spider mite (Tetranychus urticae) are sprayed with an active compound formulation of the desired concentration.
After 6 days, the efficacy in % is determined. 100% means that all the spider mites have been killed; 0% means that no spider mites have been killed.

[7] = test system: Diabrotica balteata; assay: Diabrotica balteata spray test; conditions: 168 h, beetle larvae on wheat, after 7 days, read-out: efficacy (wheat plant growth); for pest or weed control at 100 g/ha: 100 g/ha (=32 μg/cavity); for pest or weed control at 500 g/ha: 500 g/ha (=160 μg/cavity)
Procedure, shortened: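 Germinated wheat seedlings in agar multiwell plates were sprayed with compound in acetone/DMF with emulsifier-containing water, then infested with 10-20 Diabrotica balteata larvae. After 7 days, efficacy (%) scored by plant growth: 100% equals untreated, uninfested control, 0% no plants grown.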

[8] = test system: Nezara viridula; assay: Nezara viridula spray test; conditions: 500 g/ha, larvae on barley plants, after 4 days
Protocol: Nezara viridula—Spray Test Solvent: 78.0 parts by weight of acetone • • 1.5 parts by weight of dimethylformamide Emulsifier: alkylaryl polyglycol ether
as §2
Barley plants (Hordeum vulgare) are sprayed with an active compound formulation of the desired concentration and are infected with larvae of the Southern green shield bug (Nezara viridula).
After 4 days, the efficacy in % is determined. 100% means that all of the shield bugs have been killed; 0% means that none of the shield bugs have been killed.

[9] = test system: Myzus persicae; assay: Myzus persicae oral test; conditions: 4 ppm, after 5 days
Protocol: Myzus persicae—Oral Test Solvent: 100 parts by weight of acetone
To produce a suitable active compound formulation, 1 part by weight of active compound is dissolved using the specified parts by weight of solvent and made up with water until the desired concentration is attained.
50 μl of the active compound formulation are transferred into microtitre plates and made up to a final volume of 200 μl with 150 μl of IPL41 insect medium (33%+15% sugar). Subsequently, the plates are sealed with parafilm, which a mixed population of green peach aphids (Myzus persicae) within a second microtitre plate is able to puncture and imbibe the solution through.
After 5 days, the efficacy in % is determined. 100% means that all the aphids have been killed; 0% means that no aphids have been killed.

[10] = test system: Ctenocephalides felis; assay: Ctenocephalides felis in vitro contact test with adult cat fleas; conditions: 5 μg/cm^2 (=500 g of ai/ha), after 48 h, read-out: efficacy (fleas dead or moribund)
Protocol: Ctenocephalides felis—In Vitro Contact Tests with Adult Cat Fleas
For the coating of the test tubes, 9 mg of active compound are first dissolved in 1 ml of acetone p.a. and then diluted to the desired concentration with acetone p.a. 250 μl of the solution are distributed homogeneously on the inner walls and the base of a 25 ml glass tube by turning and rocking on an orbital shaker (rocking rotation at 30 rpm for 2 h). With 900 ppm of active compound solution and internal surface area 44.7 cm^2, given homogeneous distribution, an area-based dose of 5 μg/cm^2 is achieved.
After the solvent has evaporated off, the tubes are populated with 5-10 adult cat fleas (Ctenocephalides felis), sealed with a perforated plastic lid and incubated in a horizontal position at room temperature and ambient humidity. After 48 h, efficacy is determined. To this end, the tubes are stood upright and the fleas are knocked to the base of the tube. Fleas which remain motionless at the base or move in an uncoordinated manner are considered to be dead or moribund.
100% efficacy means that all the fleas were dead or moribund. 0% efficacy means that no fleas were harmed.

SMILES | efficacy (laying of fertile eggs) [1] | pest or weed control at 100 g/ha [2] | pest or weed control at 500 g/ha [2] | efficacy (kill) [3] | pest or weed control at 100 ppm [4] | pest or weed control at 100 g/ha [5] | pest or weed control at 500 g/ha [5] | efficacy (spider mites killed) ([6]; foliar, 144 h) | pest or weed control at 100 g/ha [7] | pest or weed control at 500 g/ha [7] | efficacy (spider mites killed) ([6]; bean leaf discs, all stages, after 6 days) | efficacy (shield bugs killed) [8] | efficacy (aphids killed) [9] | pest or weed control at 125 g/ha ([7]; 125 g/ha (=40 μg/cavity)) | pest or weed control at 5 µg/cm2 [10]
CCO[C@@H]1[C@@H](OC)[C@H](C)O[C@@H](OC(=O)Nc2ccc(-c3nc(NC(=O)CC)n(-c4ccc(OC(F)(F)C(F)(F)F)cc4)n3)cc2)[C@@H]1OC [Compound I-005] | 90% | 100% | 100% | 80% | 100% | 100% | 100% | – | – | – | – | – | – | – | –
CCO[C@@H]1[C@@H](OC)[C@H](C)O[C@@H](OC(=O)Nc2ccc(-c3nc(NC(C)=O)n(-c4ccc(OC(F)(F)C(F)(F)F)cc4)n3)cc2)[C@@H]1OC [Compound I-006] | – | 100% | 100% | 80% | 95% | 100% | 100% | 100% | – | – | – | – | – | – | –
CCOCCNc1nc(-c2ccc(C=NNC(=S)Nc3ccccc3C(C)C)cc2)nn1-c1ccc(OC(F)(F)F)cc1 [Compound I-060] | – | – | – | – | – | 100% | – | – | 100% | 100% | 90% | – | – | – | –
CCO[C@@H]1[C@@H](OC)[C@H](C)O[C@@H](OC(=O)Nc2ccc(-c3nc(NC(C)=O)n(-c4ccc(OC(F)(F)F)cc4)n3)cc2)[C@@H]1OC [Compound I-001, [(2S,3R,4R,5S,6S)-4-ethoxy-3,5-dimethoxy-6-methyl-tetrahydropyran-2-yl]N-[4-[5-acetamido-1-[4-(trifluoromethoxy)phenyl]-1,2,4-triazol-3-yl]phenyl]carbamate] | – | – | 100% | – | – | 100% | 100% | 90% | – | – | – | – | – | – | –
CNc1nc(-c2ccc(C=NNC(=S)Nc3ccccc3C(C)C)cc2)nn1-c1ccc(OC(F)(F)F)cc1 [Compound I-018, 1-(2-isopropylphenyl)-3-[[4-[5-(methylamino)-1-[4-(trifluoromethoxy)phenyl]-1,2,4-triazol-3-yl]phenyl]methyleneamino]thiourea] | – | – | – | – | 95% | 100% | – | – | – | 100% | – | 100% | 90% | 100% | 80%
CC(C)c1ccccc1NC(=S)NN=Cc1ccc(-c2nc(NC3CSC3)n(-c3ccc(OC(F)(F)F)cc3)n2)cc1 [Compound I-057] | – | – | – | – | – | 100% | – | – | 100% | 100% | – | – | 90% | – | –
